Measurements published in patent US10294202B2, “Pyrrolidinones as herbicides” (FMC Corporation, priority 2013, dated 2019).

How the values were obtained:
sedge, umbrella = test: Test B flooded paddy test; assay type: in vivo, Cyperus difformis; details: 500 g ai/ha, Flood; scale of 0 to 100 where 0 is no effect and 100 is complete control
How it was run: (§1)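 Scored visually 0–100 (0 no effect, 100 complete control) versus controls after 13 to 15 greenhouse days. Treatment: compound added to paddy water kept 3 cm above soil, on 2-leaf-stage plants.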

barnyardgrass [1] = test: Test B flooded paddy test; assay type: in vivo, Echinochloa crus-galli; details: 500 g ai/ha, Flood; scale of 0 to 100 where 0 is no effect and 100 is complete control
How it was run: as §1

galium = test: Test A postemergence herbicide test; assay type: in vivo, Galium aparine; details: for Plant response rating, Galium: 125 g ai/ha, 0 to 100 scale, 0 is no effect, 100 is complete control; for Galium plant response rating (0 to 100 scale, 0 is no effect, 100 is complete control): 500 g ai/ha
How it was run: (§2)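 Potted in loam soil/sand blend; postemergence application at 1–2 leaf stage (2–10 cm). Greenhouse ~10 d. Visual injury vs untreated, 0–100 scale; 100 = complete control.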

ryegrass, Italian = test: Test A pre-/postemergence herbicide test; assay type: in vivo, Lolium multiflorum; details: for Plant response rating, Ryegrass, Italian: 0 to 100 scale
How it was run: (§3)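 Formulated compound (non-phytotoxic solvent, surfactant) sprayed pre- onto soil of seeded loam/sand pots or post- onto seedlings at 1–2 leaves; ~10 d greenhouse; 0–100 visual control rating versus untreated.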

pigweed = test: Test A pre-/postemergence herbicide test; assay type: in vivo, Amaranthus retroflexus; details: for Plant response rating, Pigweed: 0 to 100 scale
How it was run: as §3

corn = test: Test A pre-/postemergence herbicide test; assay type: in vivo, Zea mays; details: Postemergence; for Plant response rating, Corn: 125 g ai/ha, 0 to 100 scale, 0 is no effect, 100 is complete control; for Corn plant response rating (0 to 100 scale, 0 is no effect, 100 is complete control): 500 g ai/ha
How it was run: as §3

rice = test: Test B flooded paddy test; assay type: in vivo, Oryza sativa; details: 500 g ai/ha, Flood; scale of 0 to 100 where 0 is no effect and 100 is complete control
How it was run: as §1

ragweed = test: Test A pre-/postemergence herbicide test; assay type: in vivo, Ambrosia elatior; details: for Plant response rating, Ragweed: 0 to 100 scale
How it was run: as §3

giant foxtail = test: Test A pre-/postemergence herbicide test; assay type: in vivo, Setaria faberii; details: for Plant response rating, Foxtail, Giant: 0 to 100 scale
How it was run: as §3

blackgrass = test: Test A postemergence herbicide test; assay type: in vivo, Alopecurus myosuroides; details: for Plant response rating, Blackgrass: 125 g ai/ha, 0 to 100 scale, 0 is no effect, 100 is complete control; for Blackgrass plant response rating (0 to 100 scale, 0 is no effect, 100 is complete control): 500 g ai/ha
How it was run: as §2

ducksalad = test: Test B flooded paddy test; assay type: in vivo, Heteranthera limosa; details: 500 g ai/ha, Flood; scale of 0 to 100 where 0 is no effect and 100 is complete control
How it was run: as §1

kochia = test: Test A pre-/postemergence herbicide test; assay type: in vivo, Kochia scoparia; details: for Plant response rating, Kochia: 0 to 100 scale
How it was run: as §3

wheat = test: Test A pre-/postemergence herbicide test; assay type: in vivo, Triticum aestivum; details: Postemergence; for Plant response rating, Wheat: 125 g ai/ha, 0 to 100 scale, 0 is no effect, 100 is complete control; for Wheat plant response rating (0 to 100 scale, 0 is no effect, 100 is complete control): 500 g ai/ha
How it was run: as §3

barnyardgrass [2] = test: Test A pre-/postemergence herbicide test; assay type: in vivo, Echinochloa crus-galli; details: for Plant response rating, Barnyardgrass: 0 to 100 scale
How it was run: as §3

[3] = 125 g ai/ha, visual rating, 0 no effect, 100 complete control, approximately 10 days, preemergence
[4] = Postemergence, 125 g ai/ha, 0 is no effect, 100 is complete control
[5] = preemergence, 500 g ai/ha, 0 is no effect and 100 is complete control

| SMILES | Plant response rating, Sedge, Umbrella (sedge, umbrella) | Plant response rating, Barnyardgrass (barnyardgrass [1]) | Plant response rating, Galium (galium) | Galium plant response rating (0 to 100 scale, 0 is no effect, 100 is complete control) (galium) | Plant response rating, Ryegrass, Italian (ryegrass, Italian; [3]) | Plant response rating, Ryegrass, Italian (ryegrass, Italian; [4]) | Ryegrass, Italian plant response rating (0 to 100 scale, 0 is no effect, 100 is complete control) (ryegrass, Italian; Postemergence, 500 g ai/ha) | Plant response rating, Ryegrass, Italian (ryegrass, Italian; [5]) | Plant response rating, Pigweed (pigweed; [3]) | Plant response rating, Pigweed (pigweed; [4]) | Pigweed plant response rating (0 to 100 scale, 0 is no effect, 100 is complete control) (pigweed; Postemergence, 500 g ai/ha) | Plant response rating, Pigweed (pigweed; [5]) | Plant response rating, Corn (corn) | Corn plant response rating (0 to 100 scale, 0 is no effect, 100 is complete control) (corn) | Plant response rating, Rice (rice) | Plant response rating, Ragweed (ragweed; [3]) | Plant response rating, Ragweed (ragweed; [4]) | Ragweed plant response rating (0 to 100 scale, 0 is no effect, 100 is complete control) (ragweed; Postemergence, 500 g ai/ha) | Plant response rating, Ragweed (ragweed; [5]) | Plant response rating, Foxtail, Giant (giant foxtail; [3]) | further results |
| --- | --- | --- | --- | --- | --- | --- | --- | --- | --- | --- | --- | --- | --- | --- | --- | --- | --- | --- | --- | --- | --- |
| O=C1NCC(c2cccc(OC(F)F)c2)C1C(=O)Nc1ccccc1C(F)(F)F (stereo not drawn) [Compound 222] | 0 | 60 | 30 | 60 | 20 | 20 | 30 | 50 | 0 | 0 | 20 | 30 | 20 | 60 | 0 | 0 | 0 | 40 | 20 | 90 | Plant response rating, Foxtail, Giant (giant foxtail; [4]): 80; Foxtail, Giant plant response rating (0 to 100 scale, 0 is no effect, 100 is complete control) (giant foxtail; Postemergence, 500 g ai/ha): 90; Plant response rating, Foxtail, Giant (giant foxtail; [5]): 90; Plant response rating, Blackgrass (blackgrass): 30; Blackgrass plant response rating (0 to 100 scale, 0 is no effect, 100 is complete control) (blackgrass): 60; Plant response rating, Ducksalad (ducksalad): 100; Plant response rating, Kochia (kochia; [3]): 0; Plant response rating, Kochia (kochia; [4]): 0; Kochia plant response rating (0 to 100 scale, 0 is no effect, 100 is complete control) (kochia; Postemergence, 500 g ai/ha): 40; Plant response rating, Kochia (kochia; [5]): 50; Plant response rating, Wheat (wheat): 20; Wheat plant response rating (0 to 100 scale, 0 is no effect, 100 is complete control) (wheat): 30; Plant response rating, Barnyardgrass (barnyardgrass [2]; [3]): 70; Plant response rating, Barnyardgrass (barnyardgrass [2]; [4]): 70; Barnyardgrass plant response rating (0 to 100 scale, 0 is no effect, 100 is complete control) (barnyardgrass [2]; Postemergence, 500 g ai/ha): 90; Plant response rating, Barnyardgrass (barnyardgrass [2]; [5]): 90 |
| O=C1NCC(c2ccc(OC(F)F)cc2)C1C(=O)Nc1ccccc1Br (stereo not drawn) [Compound 225] | 0 | 0 | 20 | 30 | 0 | 0 | 0 | 40 | 0 | 0 | 0 | 0 | 0 | 20 | 0 | 0 | 0 | 0 | 0 | 80 | Plant response rating, Foxtail, Giant (giant foxtail; [4]): 40; Foxtail, Giant plant response rating (0 to 100 scale, 0 is no effect, 100 is complete control) (giant foxtail; Postemergence, 500 g ai/ha): 70; Plant response rating, Foxtail, Giant (giant foxtail; [5]): 90; Plant response rating, Blackgrass (blackgrass): 0; Blackgrass plant response rating (0 to 100 scale, 0 is no effect, 100 is complete control) (blackgrass): 30; Plant response rating, Ducksalad (ducksalad): 90; Plant response rating, Kochia (kochia; [3]): 0; Plant response rating, Kochia (kochia; [4]): 0; Kochia plant response rating (0 to 100 scale, 0 is no effect, 100 is complete control) (kochia; Postemergence, 500 g ai/ha): 0; Plant response rating, Kochia (kochia; [5]): 30; Plant response rating, Wheat (wheat): 0; Wheat plant response rating (0 to 100 scale, 0 is no effect, 100 is complete control) (wheat): 20; Plant response rating, Barnyardgrass (barnyardgrass [2]; [3]): 20; Plant response rating, Barnyardgrass (barnyardgrass [2]; [4]): 30; Barnyardgrass plant response rating (0 to 100 scale, 0 is no effect, 100 is complete control) (barnyardgrass [2]; Postemergence, 500 g ai/ha): 60; Plant response rating, Barnyardgrass (barnyardgrass [2]; [5]): 30 |
| O=C1NCC(c2ccc(OC(F)F)cc2)C1C(=O)Nc1ccccc1Cl (stereo not drawn) [Compound 226] | 0 | 0 | 20 | 20 | 0 | 0 | 20 | 20 | 0 | 0 | 0 | 30 | 0 | 0 | 0 | 0 | 0 | 0 | 0 | 70 | Plant response rating, Foxtail, Giant (giant foxtail; [4]): 70; Foxtail, Giant plant response rating (0 to 100 scale, 0 is no effect, 100 is complete control) (giant foxtail; Postemergence, 500 g ai/ha): 80; Plant response rating, Foxtail, Giant (giant foxtail; [5]): 90; Plant response rating, Blackgrass (blackgrass): 20; Blackgrass plant response rating (0 to 100 scale, 0 is no effect, 100 is complete control) (blackgrass): 30; Plant response rating, Ducksalad (ducksalad): 100; Plant response rating, Kochia (kochia; [3]): 0; Plant response rating, Kochia (kochia; [4]): 30; Kochia plant response rating (0 to 100 scale, 0 is no effect, 100 is complete control) (kochia; Postemergence, 500 g ai/ha): 50; Plant response rating, Kochia (kochia; [5]): 30; Plant response rating, Wheat (wheat): 0; Wheat plant response rating (0 to 100 scale, 0 is no effect, 100 is complete control) (wheat): 0; Plant response rating, Barnyardgrass (barnyardgrass [2]; [3]): 50; Plant response rating, Barnyardgrass (barnyardgrass [2]; [4]): 30; Barnyardgrass plant response rating (0 to 100 scale, 0 is no effect, 100 is complete control) (barnyardgrass [2]; Postemergence, 500 g ai/ha): 80; Plant response rating, Barnyardgrass (barnyardgrass [2]; [5]): 90 |
